Consider 15 molecules from patent US5358971A, “Substituted 2-aminotetralins” (Whitby Research, Inc., priority 1993, dated 1994).

Where a name gives a salt, the structure may show the parent alone.

One assay has as its target dopamine D2 receptors (Bos taurus, UniProt P20288). Briefly: Radioligand binding to dopamine D2 receptors ([3H]-Spiperone, bovine caudate nuclei). As to conditions: for D2 (pK1) / Ki: bovine caudate nuclei, [3H]-Spiperone, 75 minutes at room temperature, 30 nM ketanserin, two-site fitted model; for Ki: read-out: D2 (pK1) (converted). Here is the method:
(§1) Radioligand Binding Experiments (Dopamine Receptor Affinity Information; pK1 values):
(§2) Bovine brains were obtained fresh from a local slaughterhouse. The caudate nuclei were dissected out and homogenized in Buffer A (50 mM Tris; 1 mM Na2 -EDTA; 5 mM KCl; 1 mM MgCl2; 2 mM CaCl2; pH 7.4) using a Brinkmann Polytron. The homogenate was centrifuged at 40,000×g for 20 minutes and washed once. The pellet was resuspended in Buffer A, incubated at 37° C. for 15 minutes, then centrifuged. The pellet was washed once more, resuspended to a protein concentration of 5-10 mg/ml in Buffer A and frozen at -70° C. until used.
(§3) To test binding of the compounds to dopamine receptors, the following tritiated drugs were used as radioligands for each of the receptors tested: [^3 H]-Spiperone 21-24 Ci/mmol for D2 receptors and [^3 H]-SCH23390 75-85 Ci/mmol for D1 receptors. The radioligands were incubated with various concentrations of competing drug and bovine membranes for the following times: 75 minutes at room temperature for D2 receptors, and 15 minutes at 37° C. for D1 receptors. Specific binding was defined using 1 μM butaclamol (D2) and 1 μM SCH 23390 (D1). In addition, the D2 assays contained 30 nM ketanserin in order to block the binding of [^3 H]-spiperone to 5-HT2 receptors.
(§4) The assays were terminated by filtration using a 24-port Brandell cell harvester over filters that had been previously soaked in 0.1% polyethyleneimine, and the filters were washed three times by filtration of cold buffer. The filters were then placed in 5 ml scintillation vials to which 4 ml of Beckman Ready-Protein was then added, and each vial was counted for 2 minutes in a Beckman 3801 scintillation counter calibrated for conversion of cpm to dpm. Binding data were analyzed using the Ligand program of Munson and Rodbard (1980). The results are presented as pK1 values in a two-site fitted model.
as §2, with “To test binding to dopamine receptors, the bovine caudate nuclei assay was employed. Bovine” for “Bovine”, “mMMgCl2;” for “mM MgCl2;”, “Brinkman” for “Brinkmann”
(§5) The following tritiated drugs were used as radioligands for each of the receptors tested: [^3 H]-Spiperone 21-24 Ci/mmol for D2 receptors and [^3 H]-SCH23390 75-85 Ci/mmol for D1 receptors. The radioligands were incubated with various concentrations of competing drug and the appropriate membrane source for periods of time as follows: 75 minutes at room temperature for D2 receptors or 15 minutes at 37° C. for D1 receptors. Specific binding was defined using 1 μM butaclamol (D2) or 1 μM SCH23390 (D1). In addition, the D2 assays contained 30nM ketaserin in order to block the binding of ^3 H-spiperone to 5HT2 receptors.
as §4, with “as Ki” for “as pK1”, “values if the data were best fitted to a one-site model, or as Kh and K1 values if” for “values in”, “two-site model produced the better fit.” for “two-site fitted model.”

The next assay deals with dopamine D2. The settings on record: reference compound, in words; cited from earlier work.
For a further assay, the target named is dopamine D1 receptors (Bos taurus, UniProt Q95136). As to the kind of experiment: Radioligand binding to dopamine D1 receptors ([3H]-SCH23390, bovine caudate nuclei). As to conditions: 15 minutes at 37° C., two-site fitted model; for Ki: read-out: D1 (pK1) (converted). Here is the method: as §1, §2, §3, §4
dopamine D1 receptors, sequence (Q95136 whole entry): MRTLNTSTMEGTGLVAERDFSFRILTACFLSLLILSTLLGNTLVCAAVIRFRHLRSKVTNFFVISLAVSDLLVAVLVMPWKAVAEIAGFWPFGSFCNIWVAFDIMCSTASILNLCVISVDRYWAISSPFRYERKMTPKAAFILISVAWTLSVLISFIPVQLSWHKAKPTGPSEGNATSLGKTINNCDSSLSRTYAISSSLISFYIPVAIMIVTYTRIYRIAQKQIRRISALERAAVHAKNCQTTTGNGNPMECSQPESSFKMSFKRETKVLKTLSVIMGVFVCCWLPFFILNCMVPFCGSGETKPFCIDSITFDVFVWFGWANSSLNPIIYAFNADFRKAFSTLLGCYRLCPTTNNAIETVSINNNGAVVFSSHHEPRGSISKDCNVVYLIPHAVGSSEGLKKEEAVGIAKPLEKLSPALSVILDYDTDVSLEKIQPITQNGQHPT
as §2, with “To test binding to dopamine receptors, the bovine caudate nuclei assay was employed. Bovine” for “Bovine”, “mMMgCl2;” for “mM MgCl2;”, “Brinkman” for “Brinkmann”
as §5
as §4, with “as Ki” for “as pK1”, “values if the data were best fitted to a one-site model, or as Kh and K1 values if” for “values in”, “two-site model produced the better fit.” for “two-site fitted model.”

The test system of a further assay is dopamine receptor. The settings on record: prior art, in words; cited from earlier work.

dopamine D2 receptors, sequence (P20288 whole entry): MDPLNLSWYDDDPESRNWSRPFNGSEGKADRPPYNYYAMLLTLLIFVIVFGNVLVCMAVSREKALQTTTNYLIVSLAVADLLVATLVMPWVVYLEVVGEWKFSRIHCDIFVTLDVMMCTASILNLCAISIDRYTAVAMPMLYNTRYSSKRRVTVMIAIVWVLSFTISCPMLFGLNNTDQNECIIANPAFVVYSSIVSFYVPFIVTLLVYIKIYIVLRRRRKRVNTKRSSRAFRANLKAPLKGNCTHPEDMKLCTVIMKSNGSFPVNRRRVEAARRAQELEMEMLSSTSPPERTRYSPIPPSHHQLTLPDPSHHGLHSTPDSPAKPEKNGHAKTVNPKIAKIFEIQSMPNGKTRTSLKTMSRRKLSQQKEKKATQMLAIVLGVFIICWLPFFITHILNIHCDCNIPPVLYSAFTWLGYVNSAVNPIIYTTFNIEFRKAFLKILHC

As to `CCCN(CCc1cccs1)C1CCc2c(O)cccc2C1` (racemic) [Example N-0437, reference compound], the “D2 (pK1)” value at dopamine D2 receptors was found to be 6.96. In the assay on dopamine D2, the “dopamine D2 agonist” value was “potent dopamine D2 agonist”.

Turning to `CCCN(CCOc1ccccc1)C1CCc2c(O)cccc2C1` (single isomer, unassigned; (-)) [Example 30, (-)-5,6,7,8-tetrahydro-6-[(2-phenoxyethyl)propylamino]-1-naphthalenol], the Ki at dopamine D2 receptors was 0.17 µM; at dopamine D1 receptors, 8.71 µM.

Take `CCCN(CCOc1ccccc1)C1CCc2c(O)cccc2C1` (stereo not shown) [Example 2, 2-[N-n-propyl,N-2-(phenyloxy)ethylamino]-5-hydroxytetralin]: the Ki on dopamine D2 receptors was 0.126 µM. Also, on dopamine D2 receptors (in words), the “affinity for binding to dopamine D2 receptors” value is “high affinity”; the “selectivity for binding to dopamine D2 receptors” value was “high affinity and selectivity”. The Ki at dopamine D1 receptors was 12 µM.

Consider `CCCN(CCC1OC(=O)c2ccccc21)C1CCc2c(O)cccc2C1` (stereo not shown) [Example 9, 3-[2-[propyl(1,2,3,4-tetrahydro-5-hydroxy-2-naphthalenyl)amino]ethyl]-l(3H)-isobenzofuranone], for which the Ki on dopamine D2 receptors was 0.0661 µM; at dopamine D1 receptors, 2.14 µM.

With `CCCN(CC(c1ccccc1)c1ccccc1)C1CCc2c(O)cccc2C1` (stereo not shown) [Example 12, 2-[N-n-propyl,N-2,2-diphenylethylamino]-5-hydroxytetralin], the Ki on dopamine D2 receptors was 0.0468 µM; on dopamine D1 receptors, 9.12 µM.

As to `CCCN(CCC(c1ccccc1)c1ccccc1)C1CCc2c(O)cccc2C1` (stereo not shown) [Example 14, 2-[N-n-propyl,N-3,3-diphenyipropylamino]-5-hydroxytetralin], the Ki at dopamine D2 receptors is 0.339 µM; at dopamine D1 receptors, 1.38 µM.

For `CCCN(CCOc1ccc2ccccc2c1)C1CCc2c(O)cccc2C1` (stereo not shown) [Example 32, 5,6,7,8-tetrahydro-6-[(2-(2-naphthalenyloxy)ethyl]propylamino]-1-naphthalenol], the Ki on dopamine D2 receptors was 2.63 µM; at dopamine D1 receptors, 4.17 µM.

As to `CCCN(CCSc1ccccc1)C1CCc2c(O)cccc2C1` (stereo not shown) [Example 34, 5,6,7,8-tetrahydro-6-[(2-thiophenoxyethyl)propylamino]-1-naphthalenol], the Ki is 0.0794 µM at dopamine D2 receptors and 1.29 µM on dopamine D1 receptors.

As for `CCCN(CC[C@H]1OC(=O)c2ccccc21)[C@H]1CCc2c(O)cccc2C1` [Example 36, (S,R)-3-[2-[propyl(1,2,3,4-tetrahydro-5-hydroxy-2-naphthalenyl)amino]ethyl]-l(3H)-isobenzofuranone], the “D2 (pK1)” value on dopamine D2 receptors amounted to 6.85. Also, the “D1 (pK1)” value at dopamine D1 receptors was 6.56.

As to `CCCN(CC[C@@H]1OC(=O)c2ccccc21)[C@H]1CCc2c(O)cccc2C1` [Example 37, (S,S)-3-[2-[propyl(1,2,3,4-tetrahydro-5-hydroxy-2-naphthalenyl)amino]ethyl]-1(3H)-isobenzofuranone], the Ki at dopamine D2 receptors was 0.123 µM; at dopamine D1 receptors it was 1.23 µM.

For the molecule `CCCN(CCOc1ccccc1)C1CCc2ccc(O)cc2C1` (stereo not shown) [Example 39, 5,6,7,8-tetrahydro-6-[(2-phenoxylethyl)-propylamino]-3-naphthalenol], the Ki on dopamine D2 receptors was 0.813 µM; on dopamine D1 receptors, 12.3 µM.

`CCCN(CCOc1cccc(F)c1)C1CCc2c(O)cccc2C1` (stereo not shown) [Example 45, 5,6,7,8-tetrahydro-6-[[2(3-fluorophenoxy)ethyl]propylamino]-1-naphthalenol]: the Ki at dopamine D2 receptors is 0.316 µM; at dopamine D1 receptors, 10.5 µM.

`CCCN(CCC1OCc2ccccc21)C1CCc2c(O)cccc2C1` (stereo not shown) [Example 46, 6-[[2-(1,3-dihydro-1-isobenzofuranyl)-ethyl]propylamino]-5,6,7,8-tetrahydro-1-naphthalenol]: the “D2 (pK1)” value on dopamine D2 receptors is 6.77. For the same molecule, the “D1 (pK1)” value on dopamine D1 receptors is on record as 5.14.

For `CCCN(CCOc1cccc2ccccc12)C1CCc2c(O)cccc2C1` (stereo not shown) [Example 48, 5,6,7,8-tetrahydro-6-[[2-(1-naphthalenyloxy)ethyl]propylamino]-1-naphthalenol hydrochloride], the results for the Ki on dopamine D2 receptors and on dopamine D1 receptors were 1.15 µM and 13.5 µM, respectively.

With `CN1CCc2cccc3c2[C@H]1Cc1ccc(O)c(O)c1-3` [apomorphine], the dopaminergic activity result in the assay with dopamine receptor is reported as “high activity”.
